{"source": "paper PMC9486805", "about": "“Identification of a Phage Display-Derived Peptide Interacting with the N-Terminal Region of Factor VII Activating Protease (FSAP) Enables Characterization of Zymogen Activation” (ACS Chemical Biology, 2022)", "key": {"thrombin": {"test_system": "thrombin", "experiment": "Specificity: thrombin", "type": "biochemical", "settings": "thrombin 20 nM; peptide 0-50 μM; CS01 (Fig S7)", "experimental": "Fig S7. […]\n(§1) Pro-thrombin (100 nM) and thrombin (20 nM) […]\n(§2) Bend, IN, USA) except plasminogen and FSAP, which were isolated in house; and pro-uPA was from Grünenthal (Stolberg, Germany). All chromogenic substrates were from Hyphen Biomed (Neuville Sur Oise, France). Experiments were carried out in TBS with Tween-20 (0.1 % wt/ vol) BSA (0.3% wt/vol) and CaCl2 (2 mM). Absorbance at 405 nm was measured over time and the enzyme activity is depicted was measured in duplicates (mean + or -range) and similar results were obtained in 3"}, "[1]": {"experiment": "Substrate turnover in FSAP-depleted plasma", "type": "biochemical, human", "settings": "FSAP-depleted citrate plasma 1:12; 25 μM (Fig 6A)", "experimental": "Figure 6 Pro-FSAP activation and clotting in plasma by NNKC9/41: (A) citrate plasma (1:12 dilution) from donors with WT/WT, WT/MI, and MI/MI genotypes and WT-FSAP-deficient plasma (FSAP-DP) were compared. Substrate turnover was monitored after addition of NNKC9/41 or the Ser–Ser linear peptide (25 μM each). Results are shown as mean + range of duplicate wells. (B) Pooled prothrombin-deficient citrated plasma (1:5 dilution) was recalcified with 10 mM CaCl2 and incubated with NNKC9/41 or scrambled control peptide (0–25 μM each) for 60 min at 37 °C in the presence or absence of the FSAP-inhibitory MA-FSAP-38C7 (5 μg/mL). Initiation of clotting was achieved by adding the tissue factor/phospholipid and prothrombin complex concentrate. Clotting time was measured as diluted prothrombin time (dPT) in seconds. Data are the mean of three independent experiments. The relative dPT in % of the untreated control is presented as mean ± standard error (SE) (*p <0.05, two-way analysis of variance (ANOVA) and Bonferroni post-test).\n(§3) Human citrate plasma (0.38% w/v) or hirudin plasma (25 μg/mL Lepirudin) was obtained from five healthy donors. […] Hydrolysis of the fluorogenic substrates was measured using a Synergy HI plate reader with excitation at 320 nm and emission at 460 nm at 37 °C for 60 min. The maximal velocity was calculated from the linear part of the progress curve. […]"}, "pro-FSAP in human plasma [2]": {"target": "T1, pro-FSAP in human plasma (Homo sapiens, UniProt Q14520)", "T1 construct": "from tissue; host or cells: human hirudin or citrate plasma from healthy donors, diluted 1:12", "T1 sequence (Q14520 24-560)": "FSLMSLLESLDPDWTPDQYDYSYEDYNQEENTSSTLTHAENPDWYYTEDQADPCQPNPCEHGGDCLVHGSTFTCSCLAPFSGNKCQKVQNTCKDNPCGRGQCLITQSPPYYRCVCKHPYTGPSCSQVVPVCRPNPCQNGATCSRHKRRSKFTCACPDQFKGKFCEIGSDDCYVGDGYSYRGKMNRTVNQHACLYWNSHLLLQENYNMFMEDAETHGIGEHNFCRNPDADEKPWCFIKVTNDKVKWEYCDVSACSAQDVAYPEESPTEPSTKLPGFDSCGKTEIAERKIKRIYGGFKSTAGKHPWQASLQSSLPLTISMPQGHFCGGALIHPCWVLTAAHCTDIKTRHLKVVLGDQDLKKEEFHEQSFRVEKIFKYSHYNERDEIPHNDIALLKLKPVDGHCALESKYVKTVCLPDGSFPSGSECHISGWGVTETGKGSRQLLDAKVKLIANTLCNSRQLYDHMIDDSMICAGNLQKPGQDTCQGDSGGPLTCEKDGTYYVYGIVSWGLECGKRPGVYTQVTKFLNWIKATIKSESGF", "experiment": "Western blotting of activated plasma, FSAP-inhibitor complex", "type": "biochemical", "settings": "hirudin and citrate plasma 1:2, 1 h at 37 °C, non-reducing; NNKC9/41 25 µM (Fig S6)", "experimental": "Hirudin plasma Citrate plasma\nFig S6. Western blotting of activated plasma: Hirudin or citrate plasma (1:2) dilution was incubated for 1 h at 37 °C with test substances and the samples were analyzed by Western blotting with an anti-FSAP polyclonal antibody under non-reducing conditions. Top panel: NNKC9/41 and Ser-Ser cyclic peptides (25 µM) were compared to histones (50 µg/ml). Lower panel: 100, 50, 25 and 12.5 µM NNKC9/41 and Ser-Ser cyclicpeptide were compared. Arrows on the right indicate the presence of FSAP and FSAP-inhibitor complexes and MW markers are indicated on the left.Results are representative of 3 independent experiments. […]"}, "pro-FSAP in human plasma [3]": {"target": "T1, pro-FSAP in human plasma", "experiment": "Formation of FSAP–alpha2-antiplasmin complexes in plasma", "type": "biochemical", "settings": "hirudin plasma 1:12, 1 h at 37 °C; NNKC9/41 0–25 μM, histones 0–25 μg/mL; three donors (Fig 4C)", "experimental": "(§4) Figure 4 Comparison of different methods to measure pro-FSAP activation in plasma: (A) hirudin plasma (1:12 dilution) was incubated with histones (0–25 μg/mL), NNKC9/41, or its Ser–Ser linear control (0–25 μM) and the fluorogenic substrate turnover (Ac–Ala–Lys–Nle–Arg–AMC) was monitored. (B) From the same experiment as in (A) after 1 h incubation at 37 °C, samples were captured on anti-FSAP coated wells and the conversion of added pro-uPA to active uPA was measured by determining the turnover of the chromogenic substrate PNAPEP1344 (25 μM). (C) From the same experiment as in (A) after 1 h incubation at 37 °C, samples were captured on anti-FSAP coated wells and α2-antiplasmin antibody was used to detect the formation of FSAP−α2-antiplasmin complexes. […] In (F), the samples with MA-FSAP-570 were not analyzed since this antibody would interfere in the sandwich ELISA. […]\nas §3"}, "factor XII": {"test_system": "factor XII", "experiment": "Specificity towards pro-enzymes: factor XII", "type": "biochemical", "settings": "Factor XII 100 nM; peptide 0-50 μM; CS31 (Fig S7)", "experimental": "Fig S7. Specificity of NNKC9/41 towards other pro-enzymes: Zymogens and their respective active enzymes were incubated with NNKC9/41 or Ser-Ser linear peptide (0-50 μM) and the enzyme activity was monitored using respective chromogenic substrates. Activity of Factor XII(100 nM) and Factor XIIa (20 nM) was measured with the substrate CS31 (1000 µM). Pro-thrombin (100 nM) and thrombin (20 nM) […]\nas §2"}, "pro-FSAP in human plasma [4]": {"target": "T1, pro-FSAP in human plasma", "experiment": "Immunocapture of pro-FSAP from plasma and conversion of pro-uPA to uPA", "type": "biochemical", "settings": "hirudin plasma 1:12, 1 h at 37 °C; NNKC9/41 0–25 μM, histones 0–25 μg/mL; PNAPEP1344; three donors (Fig 4B)", "experimental": "as §4, §3"}, "prothrombin": {"test_system": "prothrombin", "experiment": "Specificity towards pro-enzymes: prothrombin", "type": "biochemical", "settings": "prothrombin 100 nM; peptide 0-50 μM; CS01 (Fig S7)", "experimental": "Fig S7. […]\nas §1, §2"}}, "note": "“Also recorded” adds a separate entry of the source.", "data": [{"sequence": "CRGAMWMYKRC [NNKC9/41]", "values": [{"measurement": "effect on activity", "setting": "thrombin", "value": "did not influence the activity"}, {"measurement": "substrate turnover", "setting": "[1]", "value": "no turnover of the substrate"}, {"measurement": "FSAP-inhibitor complex band", "setting": "pro-FSAP in human plasma [2]", "value": "emergence of an FSAP-inhibitor complex band"}, {"measurement": "FSAP–alpha2-antiplasmin complex formation", "setting": "pro-FSAP in human plasma [3]", "value": "weaker than histones; also recorded: concentration-dependent effect"}, {"measurement": "effect on activity", "setting": "factor XII", "value": "did not influence the activity"}, {"measurement": "pro-uPA conversion", "setting": "pro-FSAP in human plasma [4]", "value": "weaker than histones; also recorded: concentration-dependent effect"}, {"measurement": "effect on activity", "setting": "prothrombin", "value": "did not influence the activity"}]}]}
